Measurements: patent US11883194B2, “Method and system for measuring, predicting, and optimizing human cognitive performance” (priority 2015, dated 2024)

Assay: caffeine effect (gPD) parameters of the alertness model for PVT performance
Assay type: in vivo, human
Settings: beginning model parameter value (standard error)
Text: In at least one embodiment, the model is as follows: Pc(t)=(S(t)+κC(t))*gPD(t,c) (1) where C and S denote the circadian and homeostatic processes of the two-process model at time t, respectively, and κ represents the circadian amplitude.
M0, k0, z, and ka denote an amplitude slope, a basal elimination rate, a decay constant, and an absorption rate, respectively.

Structure (SMILES): Cn1c(=O)c2c(ncn2C)n(C)c1=O [caffeine]
- M0 (amplitude slope) (PVT lapse statistic): 9.86 (1.80) g^−1
- Z (decay constant) (PVT lapse statistic): 1.63 (1.61) g^−1
- k0 (basal elimination rate) (PVT lapse statistic): 0.49 (0.17) h^−1
- M0 (amplitude slope) (PVT mean RT statistic): 3.59 (0.66) g^−1
- Z (decay constant) (PVT mean RT statistic): 1.63 (1.61) g^−1
- k0 (basal elimination rate) (PVT mean RT statistic): 0.49 (0.17) h^−1
- ka (capsule) (absorption rate) (PVT lapse statistic): 2.06 (0.36) h^−1
- ka (capsule) (absorption rate) (PVT mean RT statistic): 2.06 (0.36) h^−1
